Measurements as given in patent publication US11178871B2, “Herbicidal pyrimidine compounds” (BASF SE, priority 2016, dated 2021).

Key:
Type in all cases: in vivo
Apera spica-venti [1] = test: greenhouse test, pre-emergence treatment, APESV
In short: (§1)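 Herbicidal effect rated on a 0-100 scale, where 0 is normal growth and 100 is no emergence or destroyed aerial parts, 2 to 4 weeks after soil application at sowing.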

Amaranthus retroflexus [2] = test: greenhouse test, pre-emergence treatment, AMARE
From the text: (§2) The culture containers used were plastic flowerpots containing loamy sand with approximately 3.0% of humus as the substrate. The seeds of the test plants were sown separately for each species.
(§3) For the pre-emergence treatment, the active ingredients, which had been suspended or emulsified in water, were applied directly after sowing by means of finely distributing nozzles. The containers were irrigated gently to promote germination and growth and subsequently covered with transparent plastic hoods until the plants had rooted. This cover caused uniform germination of the test plants, unless this had been impaired by the active ingredients.
(§4) Depending on the species, the plants were kept at 10-25° C. or 20-35° C., respectively.
(§5) The test period extended over 2 to 4 weeks. During this time, the plants were tended, and their response to the individual treatments was evaluated.
(§6) Evaluation was carried out using a scale from 0 to 100. 100 means no emergence of the plants, or complete destruction of at least the aerial moieties, and 0 means no damage, or normal course of growth. A good herbicidal activity is given at values of at least 70 and a very good herbicidal activity is given at values of at least 85.
(§7) The plants used in the greenhouse experiments were of the following species: […]

Echinocloa crus-galli [3] = test: greenhouse test, pre-emergence treatment, ECHCG
In short: as §1

Setaria faberi = test: greenhouse test, pre-emergence treatment, SETFA
From the text: as §2, §3, §4, §5, §6, §7

Agrostis stolonifera = test: greenhouse test, pre-emergence treatment, AGSST; conditions: 2000 g/ha
From the text: as §2, §3, §4, §5, §6, §7

Echinocloa crus-galli [4] = test: greenhouse test, post-emergence treatment, ECHCG
In short: (§8)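 Herbicidal effect is rated 0–100, where 100 denotes total destruction of aerial parts and 0 denotes unaffected growth. Treatment occurs once plants reach 3–15 cm in humus-containing loamy sand, with compound applied in water; the trial runs 2–4 weeks at 10–25 °C or 20–35 °C.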

Alopecurus myosuroides = test: greenhouse test, post-emergence treatment, ALOMY
In short: as §8

Avena fatua = test: greenhouse test, post-emergence treatment, AVEFA; conditions: 2000 g/ha
In short: as §8

Setaria viridis = test: greenhouse test, post-emergence treatment, SETVI; conditions: 1000 g/ha
In short: as §8

Matricaria inodora = test: greenhouse test, post-emergence treatment, MATIN; conditions: 2000 g/ha
From the text: as §2
(§9) For the post-emergence treatment, the test plants were first grown to a height of 3 to 15 cm, depending on the plant habit, and only then treated with the active ingredients which had been suspended or emulsified in water. For this purpose, the test plants were either sown directly and grown in the same containers, or they were first grown separately as seedlings and transplanted into the test containers a few days prior to treatment.
as §4, §5, §6, §7

Poa annua = test: greenhouse test, pre-emergence treatment, POAAN; conditions: 2000 g/ha
From the text: as §2, §3, §4, §5, §6, §7

Abutilon theophrasti = test: greenhouse test, post-emergence treatment, ABUTH; conditions: 1000 g/ha
From the text: as §2, §9, §4, §5, §6, §7

Amaranthus retroflexus [5] = test: greenhouse test, post-emergence treatment, AMARE
In short: as §8

Polygonum convolvulus = test: greenhouse test, post-emergence treatment, POLCO; conditions: 500 g/ha
From the text: as §2, §9, §4, §5, §6, §7

Apera spica-venti [6] = test: greenhouse test, post-emergence treatment, APESV; conditions: 500 g/ha
From the text: as §2, §9, §4, §5, §6, §7

[7] = 500 g/ha, printed under post-emergence, method not restated

OC1(c2nc(C3CC3)ncc2-c2ccccc2Cl)C(F)(F)C(F)(F)C(F)(F)C(F)(F)C1(F)F [Ex. 229]
herbicidal activity (Apera spica-venti [1]; 1000 g/ha): very good (a very good herbicidal activity is given at values of at least 85) | herbicidal activity (Amaranthus retroflexus [2]; 1000 g/ha): good (A good herbicidal activity is given at values of at least 70)

COc1ncc(OC)c(-c2nc(C3CC3)ncc2-c2ccccc2Cl)n1 [Ex. 251]
herbicidal activity (Amaranthus retroflexus [2]; 500 g/ha): very good (a very good herbicidal activity is given at values of at least 85)

Cc1nc(C2CC2)ncc1-c1ccccc1C(F)(F)F [Ex. 17]
herbicidal activity (Echinocloa crus-galli [3]; 2000 g/ha): very good (a very good herbicidal activity is given at values of at least 85) | herbicidal activity (Setaria faberi; 2000 g/ha): very good (a very good herbicidal activity is given at values of at least 85) | herbicidal activity (Agrostis stolonifera): very good (a very good herbicidal activity is given at values of at least 85)

Cc1cocc1-c1nc(C2CC2)ncc1-c1ccccc1Br [Ex. 269]
herbicidal activity (Setaria faberi; 1000 g/ha): very good (a very good herbicidal activity is given at values of at least 85) | herbicidal activity (Echinocloa crus-galli [4]; post-emergence, 1000 g/ha): very good (a very good herbicidal activity is given at values of at least 85)

Fc1ccc(-c2nc(C3CC3)ncc2-c2ccccc2Cl)cc1 [Ex. 11]
herbicidal activity (Echinocloa crus-galli [3]; 2000 g/ha): good (A good herbicidal activity is given at values of at least 70) | herbicidal activity (Setaria faberi; 2000 g/ha): very good (a very good herbicidal activity is given at values of at least 85)

Cc1noc(-c2nc(C3CC3)ncc2-c2ccccc2Cl)n1 [Ex. 295]
herbicidal activity (Echinocloa crus-galli [3]; 2000 g/ha): very good (a very good herbicidal activity is given at values of at least 85) | herbicidal activity (Apera spica-venti [1]; 2000 g/ha): very good (a very good herbicidal activity is given at values of at least 85) | herbicidal activity (Alopecurus myosuroides; post-emergence, 2000 g/ha): very good (a very good herbicidal activity is given at values of at least 85) | herbicidal activity (Amaranthus retroflexus [2]; 2000 g/ha): very good (a very good herbicidal activity is given at values of at least 85) | herbicidal activity (Avena fatua): very good (a very good herbicidal activity is given at values of at least 85)

Clc1ccccc1-c1cnc(C2CC2)nc1C1CCOC1 (stereo not drawn) [Ex. 59]
herbicidal activity (Setaria viridis): very good (a very good herbicidal activity is given at values of at least 85) | herbicidal activity (Echinocloa crus-galli [3]; 1000 g/ha): very good (a very good herbicidal activity is given at values of at least 85) | herbicidal activity (Setaria faberi; 1000 g/ha): good (A good herbicidal activity is given at values of at least 70) | herbicidal activity (Echinocloa crus-galli [4]; post-emergence, 1000 g/ha): good (A good herbicidal activity is given at values of at least 70)

N#CC(C#N)c1nc(C2CC2)ncc1-c1ccccc1Br [Ex. 25]
herbicidal activity (Matricaria inodora): very good (a very good herbicidal activity is given at values of at least 85) | herbicidal activity (Poa annua): very good (a very good herbicidal activity is given at values of at least 85) | herbicidal activity (Agrostis stolonifera): very good (a very good herbicidal activity is given at values of at least 85)

CCc1ncoc1-c1nc(C2CC2)ncc1-c1ccccc1Cl [Ex. 286]
herbicidal activity (Abutilon theophrasti): very good (a very good herbicidal activity is given at values of at least 85) | herbicidal activity (Echinocloa crus-galli [3]; 1000 g/ha): very good (a very good herbicidal activity is given at values of at least 85) | herbicidal activity (Apera spica-venti [1]; 1000 g/ha): very good (a very good herbicidal activity is given at values of at least 85) | herbicidal activity (Amaranthus retroflexus [2]; 1000 g/ha): very good (a very good herbicidal activity is given at values of at least 85) | herbicidal activity (Amaranthus retroflexus [5]; 1000 g/ha): very good (a very good herbicidal activity is given at values of at least 85) | herbicidal activity (Echinocloa crus-galli [4]; post-emergence, 1000 g/ha): very good (a very good herbicidal activity is given at values of at least 85)

CCc1nc(CC)c(-c2nc(C3CC3)ncc2-c2ccccc2Br)o1 [Ex. 311]
herbicidal activity (Polygonum convolvulus): very good (a very good herbicidal activity is given at values of at least 85) | herbicidal activity (Apera spica-venti [6]): very good (a very good herbicidal activity is given at values of at least 85) | herbicidal activity (Alopecurus myosuroides; [7]): very good (a very good herbicidal activity is given at values of at least 85) | herbicidal activity (Alopecurus myosuroides; post-emergence, 500 g/ha): very good (a very good herbicidal activity is given at values of at least 85) | herbicidal activity (Amaranthus retroflexus [5]; 500 g/ha): very good (a very good herbicidal activity is given at values of at least 85) | herbicidal activity (Echinocloa crus-galli [4]; [7]): very good (a very good herbicidal activity is given at values of at least 85)

COC(=O)C(C)c1nc(C2CC2)ncc1-c1ccccc1Cl (stereo not drawn) [Ex. 87]
herbicidal activity (Alopecurus myosuroides; post-emergence, 2000 g/ha): very good (a very good herbicidal activity is given at values of at least 85) | herbicidal activity (Amaranthus retroflexus [2]; 2000 g/ha): good (A good herbicidal activity is given at values of at least 70)

Brc1ccccc1-c1cnc(C2CC2)nc1C(Br)Br [Ex. 27]
herbicidal activity (Echinocloa crus-galli [3]; 2000 g/ha): very good (a very good herbicidal activity is given at values of at least 85) | herbicidal activity (Apera spica-venti [1]; 2000 g/ha): very good (a very good herbicidal activity is given at values of at least 85) | herbicidal activity (Alopecurus myosuroides; post-emergence, 2000 g/ha): very good (a very good herbicidal activity is given at values of at least 85) | herbicidal activity (Amaranthus retroflexus [5]; 2000 g/ha): very good (a very good herbicidal activity is given at values of at least 85) | herbicidal activity (Echinocloa crus-galli [4]; post-emergence, 2000 g/ha): very good (a very good herbicidal activity is given at values of at least 85) | herbicidal activity (Agrostis stolonifera): very good (a very good herbicidal activity is given at values of at least 85)

N#CC(C#N)c1nc(C2CC2)ncc1-c1ccc(F)cc1Br [Ex. 36]
herbicidal activity (Matricaria inodora): very good (a very good herbicidal activity is given at values of at least 85) | herbicidal activity (Poa annua): very good (a very good herbicidal activity is given at values of at least 85) | herbicidal activity (Agrostis stolonifera): very good (a very good herbicidal activity is given at values of at least 85)

O=[N+]([O-])c1ccccc1-c1cnc(C2CC2)nc1-c1ccco1 [Ex. 37]
herbicidal activity (Setaria faberi; 2000 g/ha): good (A good herbicidal activity is given at values of at least 70)

OC(c1cccs1)C(O)c1nc(C2CC2)ncc1-c1ccccc1Cl (stereo not drawn) [Ex. 246]
herbicidal activity (Amaranthus retroflexus [2]; 500 g/ha): very good (a very good herbicidal activity is given at values of at least 85)

CCc1nc(CC)c(-c2nc(C3CC3)ncc2-c2ccccc2Cl)o1 [Ex. 310]
herbicidal activity (Polygonum convolvulus): very good (a very good herbicidal activity is given at values of at least 85) | herbicidal activity (Apera spica-venti [6]): very good (a very good herbicidal activity is given at values of at least 85) | herbicidal activity (Alopecurus myosuroides; [7]): very good (a very good herbicidal activity is given at values of at least 85) | herbicidal activity (Alopecurus myosuroides; post-emergence, 500 g/ha): very good (a very good herbicidal activity is given at values of at least 85) | herbicidal activity (Amaranthus retroflexus [5]; 500 g/ha): very good (a very good herbicidal activity is given at values of at least 85) | herbicidal activity (Echinocloa crus-galli [4]; [7]): very good (a very good herbicidal activity is given at values of at least 85)

COC(C)Cc1nc(C2CC2)ncc1-c1ccccc1Cl (stereo not drawn) [Ex. 233]
herbicidal activity (Amaranthus retroflexus [2]; 2000 g/ha): very good (a very good herbicidal activity is given at values of at least 85)

Clc1ccccc1-c1cnc(C2CC2)nc1C(Br)Br [Ex. 35]
herbicidal activity (Echinocloa crus-galli [3]; 2000 g/ha): very good (a very good herbicidal activity is given at values of at least 85) | herbicidal activity (Apera spica-venti [1]; 2000 g/ha): very good (a very good herbicidal activity is given at values of at least 85) | herbicidal activity (Alopecurus myosuroides; post-emergence, 2000 g/ha): very good (a very good herbicidal activity is given at values of at least 85) | herbicidal activity (Amaranthus retroflexus [5]; 2000 g/ha): very good (a very good herbicidal activity is given at values of at least 85) | herbicidal activity (Echinocloa crus-galli [4]; post-emergence, 2000 g/ha): very good (a very good herbicidal activity is given at values of at least 85) | herbicidal activity (Agrostis stolonifera): very good (a very good herbicidal activity is given at values of at least 85)

COCC(=Cc1nc(C2CC2)ncc1-c1ccccc1Cl)COC [Ex. 293]
herbicidal activity (Abutilon theophrasti): good (A good herbicidal activity is given at values of at least 70) | herbicidal activity (Echinocloa crus-galli [3]; 1000 g/ha): good (A good herbicidal activity is given at values of at least 70) | herbicidal activity (Setaria faberi; 1000 g/ha): very good (a very good herbicidal activity is given at values of at least 85)
